Laboratory results as given in the NIST ThermoML archive (doi:10.1016/j.jct.2012.09.026).
± gives the expanded uncertainty stated by the source.

Assay: xn = mol fraction of the nth substance listed
Conditions: 323.15 K, Liquid

CC(C)(C)O [2-methylpropan-2-ol] + O
mass density (101.3 kPa, Vibrating tube method, x1 = 0.3023): 843.45 ± 1 kg/m3
mass density (101.3 kPa, Vibrating tube method, x1 = 0.4045): 820.18 ± 1 kg/m3
mass density (101.3 kPa, Vibrating tube method, x1 = 0.4827): 806.67 ± 1 kg/m3
mass density (101.3 kPa, Vibrating tube method, x1 = 0.5344): 798.37 ± 1 kg/m3
mass density (101.3 kPa, Vibrating tube method, x1 = 0.6029): 789.18 ± 1 kg/m3
mass density (101.3 kPa, Vibrating tube method, x1 = 0.726): 775.51 ± 1 kg/m3
mass density (101.3 kPa, Vibrating tube method, x1 = 0.7999): 768.91 ± 1 kg/m3
mass density (101.3 kPa, Vibrating tube method, x1 = 0.8711): 763 ± 1 kg/m3
mass density (101.3 kPa, Vibrating tube method, x1 = 0.9183): 759.52 ± 1 kg/m3
mass density (101.3 kPa, Vibrating tube method, x1 = 0.9574): 756.76 ± 1 kg/m3
mass density (101.3 kPa, Vibrating tube method, x1 = 1): 753.94 ± 1 kg/m3
mass density (10000 kPa, Constant-volume piezometry, x1 = 0.0248): 975.58 ± 1 kg/m3
mass density (10000 kPa, Constant-volume piezometry, x1 = 0.04241): 965.03 ± 1 kg/m3
mass density (10000 kPa, Constant-volume piezometry, x1 = 0.05887): 954.03 ± 1 kg/m3
mass density (10000 kPa, Constant-volume piezometry, x1 = 0.08929): 935.46 ± 1 kg/m3
mass density (10000 kPa, Constant-volume piezometry, x1 = 0.1125): 922.12 ± 1 kg/m3
mass density (10000 kPa, Constant-volume piezometry, x1 = 0.1566): 899.59 ± 1 kg/m3
mass density (10000 kPa, Constant-volume piezometry, x1 = 0.208): 879.35 ± 1 kg/m3
mass density (10000 kPa, Constant-volume piezometry, x1 = 0.3023): 850.13 ± 1 kg/m3
mass density (10000 kPa, Constant-volume piezometry, x1 = 0.4045): 827.69 ± 1 kg/m3
mass density (10000 kPa, Constant-volume piezometry, x1 = 0.4827): 814.74 ± 1 kg/m3
mass density (10000 kPa, Constant-volume piezometry, x1 = 0.5344): 806.74 ± 1 kg/m3
mass density (10000 kPa, Constant-volume piezometry, x1 = 0.6029): 797.93 ± 1 kg/m3
mass density (10000 kPa, Constant-volume piezometry, x1 = 0.726): 784.92 ± 1 kg/m3
mass density (10000 kPa, Constant-volume piezometry, x1 = 0.7999): 778.73 ± 1 kg/m3
mass density (10000 kPa, Constant-volume piezometry, x1 = 0.8711): 773.1 ± 1 kg/m3
mass density (10000 kPa, Constant-volume piezometry, x1 = 0.9183): 769.84 ± 1 kg/m3
mass density (10000 kPa, Constant-volume piezometry, x1 = 0.9574): 767.23 ± 1 kg/m3
mass density (10000 kPa, Constant-volume piezometry, x1 = 1): 764.58 ± 1 kg/m3
mass density (25000 kPa, Constant-volume piezometry, x1 = 0.0248): 981.52 ± 1.1 kg/m3
mass density (25000 kPa, Constant-volume piezometry, x1 = 0.04241): 971.36 ± 1.1 kg/m3
mass density (25000 kPa, Constant-volume piezometry, x1 = 0.05887): 960.64 ± 1.1 kg/m3
mass density (25000 kPa, Constant-volume piezometry, x1 = 0.08929): 942.55 ± 1.1 kg/m3
mass density (25000 kPa, Constant-volume piezometry, x1 = 0.1125): 929.62 ± 1.1 kg/m3
mass density (25000 kPa, Constant-volume piezometry, x1 = 0.1566): 907.6 ± 1.1 kg/m3
mass density (25000 kPa, Constant-volume piezometry, x1 = 0.208): 887.94 ± 1.1 kg/m3
mass density (25000 kPa, Constant-volume piezometry, x1 = 0.3023): 859.69 ± 1.1 kg/m3
mass density (25000 kPa, Constant-volume piezometry, x1 = 0.4045): 838.16 ± 1.1 kg/m3
mass density (25000 kPa, Constant-volume piezometry, x1 = 0.4827): 825.82 ± 1.1 kg/m3
mass density (25000 kPa, Constant-volume piezometry, x1 = 0.5344): 818.13 ± 1.1 kg/m3
mass density (25000 kPa, Constant-volume piezometry, x1 = 0.6029): 809.81 ± 1.1 kg/m3
mass density (25000 kPa, Constant-volume piezometry, x1 = 0.726): 797.59 ± 1.1 kg/m3
mass density (25000 kPa, Constant-volume piezometry, x1 = 0.7999): 791.84 ± 1.1 kg/m3
mass density (25000 kPa, Constant-volume piezometry, x1 = 0.8711): 786.62 ± 1.1 kg/m3
mass density (25000 kPa, Constant-volume piezometry, x1 = 0.9183): 783.6 ± 1.1 kg/m3
mass density (25000 kPa, Constant-volume piezometry, x1 = 0.9574): 781.19 ± 1.1 kg/m3
mass density (25000 kPa, Constant-volume piezometry, x1 = 1): 778.73 ± 1.1 kg/m3
mass density (50000 kPa, Constant-volume piezometry, x1 = 0.0248): 991.13 ± 1.1 kg/m3
mass density (50000 kPa, Constant-volume piezometry, x1 = 0.04241): 981.39 ± 1.1 kg/m3
mass density (50000 kPa, Constant-volume piezometry, x1 = 0.05887): 971.01 ± 1.1 kg/m3
mass density (50000 kPa, Constant-volume piezometry, x1 = 0.08929): 953.61 ± 1.1 kg/m3
mass density (50000 kPa, Constant-volume piezometry, x1 = 0.1125): 941.17 ± 1.1 kg/m3
mass density (50000 kPa, Constant-volume piezometry, x1 = 0.1566): 920.03 ± 1.1 kg/m3
mass density (50000 kPa, Constant-volume piezometry, x1 = 0.208): 901.32 ± 1.1 kg/m3
mass density (50000 kPa, Constant-volume piezometry, x1 = 0.3023): 874.39 ± 1.1 kg/m3
mass density (50000 kPa, Constant-volume piezometry, x1 = 0.4045): 853.64 ± 1.1 kg/m3
mass density (50000 kPa, Constant-volume piezometry, x1 = 0.4827): 841.81 ± 1.1 kg/m3
mass density (50000 kPa, Constant-volume piezometry, x1 = 0.5344): 834.43 ± 1.1 kg/m3
mass density (50000 kPa, Constant-volume piezometry, x1 = 0.6029): 826.63 ± 1.1 kg/m3
mass density (50000 kPa, Constant-volume piezometry, x1 = 0.726): 815.19 ± 1.1 kg/m3
mass density (50000 kPa, Constant-volume piezometry, x1 = 0.7999): 809.91 ± 1.1 kg/m3
mass density (50000 kPa, Constant-volume piezometry, x1 = 0.8711): 805.23 ± 1.1 kg/m3
mass density (50000 kPa, Constant-volume piezometry, x1 = 0.9183): 802.47 ± 1.1 kg/m3
mass density (50000 kPa, Constant-volume piezometry, x1 = 0.9574): 800.32 ± 1.1 kg/m3
mass density (50000 kPa, Constant-volume piezometry, x1 = 1): 798.2 ± 1.1 kg/m3
mass density (75000 kPa, Constant-volume piezometry, x1 = 0.0248): 1000.34 ± 1.2 kg/m3
mass density (75000 kPa, Constant-volume piezometry, x1 = 0.04241): 990.63 ± 1.2 kg/m3
mass density (75000 kPa, Constant-volume piezometry, x1 = 0.05887): 980.49 ± 1.2 kg/m3
mass density (75000 kPa, Constant-volume piezometry, x1 = 0.08929): 963.7 ± 1.2 kg/m3
mass density (75000 kPa, Constant-volume piezometry, x1 = 0.1125): 951.62 ± 1.2 kg/m3
mass density (75000 kPa, Constant-volume piezometry, x1 = 0.1566): 931.22 ± 1.2 kg/m3
mass density (75000 kPa, Constant-volume piezometry, x1 = 0.208): 913.19 ± 1.2 kg/m3
mass density (75000 kPa, Constant-volume piezometry, x1 = 0.3023): 887.1 ± 1.2 kg/m3
mass density (75000 kPa, Constant-volume piezometry, x1 = 0.4045): 866.87 ± 1.2 kg/m3
mass density (75000 kPa, Constant-volume piezometry, x1 = 0.4827): 855.33 ± 1.2 kg/m3
mass density (75000 kPa, Constant-volume piezometry, x1 = 0.5344): 848.15 ± 1.2 kg/m3
mass density (75000 kPa, Constant-volume piezometry, x1 = 0.6029): 840.58 ± 1.2 kg/m3
mass density (75000 kPa, Constant-volume piezometry, x1 = 0.726): 829.57 ± 1.2 kg/m3
mass density (75000 kPa, Constant-volume piezometry, x1 = 0.7999): 824.52 ± 1.2 kg/m3
mass density (75000 kPa, Constant-volume piezometry, x1 = 0.8711): 820.17 ± 1.2 kg/m3
mass density (75000 kPa, Constant-volume piezometry, x1 = 0.9183): 817.6 ± 1.2 kg/m3
mass density (75000 kPa, Constant-volume piezometry, x1 = 0.9574): 815.64 ± 1.2 kg/m3
mass density (75000 kPa, Constant-volume piezometry, x1 = 1): 813.79 ± 1.2 kg/m3
mass density (100000 kPa, Constant-volume piezometry, x1 = 0.0248): 1009.12 ± 1.3 kg/m3
mass density (100000 kPa, Constant-volume piezometry, x1 = 0.04241): 998.9 ± 1.3 kg/m3
mass density (100000 kPa, Constant-volume piezometry, x1 = 0.05887): 989.01 ± 1.3 kg/m3
mass density (100000 kPa, Constant-volume piezometry, x1 = 0.08929): 972.81 ± 1.3 kg/m3
mass density (100000 kPa, Constant-volume piezometry, x1 = 0.1125): 961.04 ± 1.3 kg/m3
mass density (100000 kPa, Constant-volume piezometry, x1 = 0.1566): 941.06 ± 1.3 kg/m3
mass density (100000 kPa, Constant-volume piezometry, x1 = 0.208): 923.15 ± 1.3 kg/m3
mass density (100000 kPa, Constant-volume piezometry, x1 = 0.3023): 897.26 ± 1.3 kg/m3
mass density (100000 kPa, Constant-volume piezometry, x1 = 0.4045): 878.13 ± 1.3 kg/m3
mass density (100000 kPa, Constant-volume piezometry, x1 = 0.4827): 867.33 ± 1.3 kg/m3
mass density (100000 kPa, Constant-volume piezometry, x1 = 0.5344): 860.41 ± 1.3 kg/m3
mass density (100000 kPa, Constant-volume piezometry, x1 = 0.6029): 852.9 ± 1.3 kg/m3
mass density (100000 kPa, Constant-volume piezometry, x1 = 0.726): 842.31 ± 1.3 kg/m3
mass density (100000 kPa, Constant-volume piezometry, x1 = 0.7999): 837.55 ± 1.3 kg/m3
mass density (100000 kPa, Constant-volume piezometry, x1 = 0.8711): 833.28 ± 1.3 kg/m3
mass density (100000 kPa, Constant-volume piezometry, x1 = 0.9183): 830.96 ± 1.3 kg/m3
mass density (100000 kPa, Constant-volume piezometry, x1 = 0.9574): 829.12 ± 1.3 kg/m3
mass density (100000 kPa, Constant-volume piezometry, x1 = 1): 827.34 ± 1.3 kg/m3
